pIC50: −log10 of the molar value. Where “and” joins values, the source holds several entries; their conditions need not be identical. Identical values can stand only once. Like-named read-outs stand apart in the source and are kept apart here.
Assays:
[1] = biological target: T1, NAMPT (Homo sapiens, UniProt P43490); assay: Biochemical inhibition assay: NAMPT enzymatic reaction, NMN quantified by mass spectrometry; details: read-out: Biochem IC50
T1 construct: His tag; host or cells: E. coli
Procedure, shortened: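 Inhibition of E. coli-expressed His-tagged human NAMPT, measured as NMN formation by mass spectrometry after a 30 min room-temperature reaction containing 1 μM NAM, 100 μM PRPP and 2.5 mM ATP.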

[2] = tested on: A2780 cells; assay: In-vitro cell proliferation assay (SRB), A2780 cells; type: cell-based; details: A2780 cells, 72 hours, SRB, read-out: A2780 IC50
Procedure, shortened: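 Read-out is SRB absorbance at 570 nm on TCA-fixed cells after 72 hours of compound treatment at 37° C. in 5% CO2. Background from a media-only plate is subtracted, and % inhibition is interpolated between two tested concentrations.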

T1 sequence (P43490 whole entry): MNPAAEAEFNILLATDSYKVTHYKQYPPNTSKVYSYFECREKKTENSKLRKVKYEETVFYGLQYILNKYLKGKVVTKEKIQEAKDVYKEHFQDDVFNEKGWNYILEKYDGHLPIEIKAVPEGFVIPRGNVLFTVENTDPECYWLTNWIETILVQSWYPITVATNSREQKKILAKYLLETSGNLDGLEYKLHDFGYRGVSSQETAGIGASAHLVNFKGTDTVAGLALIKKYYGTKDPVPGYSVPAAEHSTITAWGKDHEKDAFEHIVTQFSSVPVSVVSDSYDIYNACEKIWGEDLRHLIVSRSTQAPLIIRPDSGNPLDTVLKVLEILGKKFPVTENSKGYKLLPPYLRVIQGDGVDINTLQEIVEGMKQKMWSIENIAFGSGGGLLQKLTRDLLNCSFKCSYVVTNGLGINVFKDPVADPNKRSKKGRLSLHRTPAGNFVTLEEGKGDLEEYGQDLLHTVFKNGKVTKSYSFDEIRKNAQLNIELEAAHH

CCS(=O)(=O)c1cccc(S(=O)(=O)c2ccc(CNC(=O)c3ccc4nccn4c3)cc2)c1
pIC50 ([1]; NAMPT enzymatic assay): 7.87 | pIC50 ([2]; Homo sapiens, A2780, 72 h): 8.22

Cn1ncc2c(S(=O)(=O)c3ccc(CNC(=O)c4cc5cnccc5[nH]4)cc3)cccc21 [N-{[4-(1-methyl-1H-indazole-4-sulfonyl)phenyl]methyl}-1H-pyrrolo[3,2-c]pyridine-2-carboxamide]
pIC50 ([1]; NAMPT enzymatic assay): 8.51 | pIC50 ([2]; Homo sapiens, A2780, 72 h): 8.82

CCCCOc1ccc(S(=O)(=O)c2ccc(CNC(=O)c3cc4ccncc4s3)cc2)cc1Cl
pIC50 ([1]; NAMPT enzymatic reaction): 8.32 | pIC50 ([2]; Homo sapiens, A2780, 72 h): 7.90

CC(C)Oc1cccc(S(=O)(=O)c2ccc(CNC(=O)c3cnc4nccn4c3)cc2)c1
pIC50 ([1]; NAMPT enzymatic assay): 8.64 | pIC50 ([2]; Homo sapiens, A2780, 72 h): 7.98

O=C(NCc1ccc(S(=O)(=O)c2cccnc2N2CCOCC2)cc1)c1cc2ccncc2o1 [N-({4-[2-(morpholin-4-yl)pyridine-3-sulfonyl]phenyl}methyl)furo[2,3-c]pyridine-2-carboxamide]
pIC50 ([1]; NAMPT enzymatic assay): 7.49 | pIC50 ([2]; Homo sapiens, A2780, 72 h): 7.22

O=C(NCc1ccc(S(=O)(=O)c2ccc(Cl)c(C(F)(F)F)c2)cc1)c1cnc2nccn2c1
pIC50 ([1]; NAMPT enzymatic assay): 8.55 | pIC50 ([2]; Homo sapiens, A2780, 72 h): 8.37

COc1ccc(C(C)(C)C)cc1S(=O)(=O)c1ccc(CNC(=O)c2cc3ccncc3o2)cc1
pIC50 ([1]; NAMPT enzymatic assay): 7.66 | pIC50 ([2]; Homo sapiens, A2780, 72 h): 8.00

Cc1cc(C)n(-c2cccc(S(=O)(=O)c3ccc(CNC(=O)c4cc5ccncc5s4)cc3)c2)n1
pIC50 ([1]; NAMPT enzymatic assay): 8.51 | pIC50 ([2]; Homo sapiens, A2780, 72 h): 8.82

CCOc1ccc(Cl)cc1S(=O)(=O)c1ccc(CNC(=O)c2cc3ccncc3s2)cc1
pIC50 ([1]; NAMPT enzymatic reaction): 8.57 | pIC50 ([2]; Homo sapiens, A2780, 72 h): 9.30

COc1ccc(NS(=O)(=O)c2ccc(CNC(=O)c3cc4cnccc4[nH]3)cc2)c(OC)c1 [N-({4-[(2,4-dimethoxyphenyl)sulfamoyl]phenyl}methyl)-1H-pyrrolo[3,2-c]pyridine-2-carboxamide]
pIC50 ([1]; NAMPT enzymatic assay): 8.24 | pIC50 ([2]; Homo sapiens, A2780, 72 h): 8.16

CCCOc1ccc(S(=O)(=O)c2ccc(CNC(=O)c3cc4ccncc4o3)cc2)cc1
pIC50 ([1]; NAMPT enzymatic reaction): 7.31 | pIC50 ([2]; Homo sapiens, A2780, 72 h): 7.92

O=C(NCc1ccc(S(=O)(=O)c2cccc(C(F)(F)F)n2)cc1)c1cc2ccncc2o1 [N-({4-[6-(trifluoromethyl)pyridine-2-sulfonyl]phenyl}methyl)furo[2,3-c]pyridine-2-carboxamide]
pIC50 ([1]; NAMPT enzymatic assay): 8.30 | pIC50 ([2]; Homo sapiens, A2780, 72 h): 8.51

O=C(NCc1ccc(S(=O)(=O)c2ccc(OC(F)(F)F)c(F)c2)cc1)c1cc2ccncc2o1
pIC50 ([1]; NAMPT enzymatic assay): 8.00 | pIC50 ([2]; Homo sapiens, A2780, 72 h): 7.81

Cc1cc(C)n(-c2cccc(S(=O)(=O)c3ccc(CNC(=O)c4ccc5ncsc5c4)cc3)c2)n1
pIC50 ([1]; NAMPT enzymatic assay): 7.75 | pIC50 ([2]; Homo sapiens, A2780, 72 h): 6.00 to 7.00

COc1cc(C(F)(F)F)ccc1S(=O)(=O)c1ccc(CNC(=O)c2cnc3[nH]ncc3c2)cc1
pIC50 ([1]; NAMPT enzymatic assay): 6.92 | pIC50 ([2]; Homo sapiens, A2780, 72 h): 7.55

O=C(NCc1ccc(S(=O)(=O)c2ccc(C3CCCCC3)cc2)cc1)c1cc2ccncc2s1
pIC50 ([1]; NAMPT enzymatic reaction): 8.47 | pIC50 ([2]; Homo sapiens, A2780, 72 h): 7.89

CNC(=O)c1cccc(S(=O)(=O)c2ccc(CNC(=O)c3cnc4nccn4c3)cc2)c1
pIC50 ([1]; NAMPT enzymatic assay): 8.43 | pIC50 ([2]; Homo sapiens, A2780, 72 h): 6.00 to 7.00

CCOc1ccc(S(=O)(=O)c2ccc(CNC(=O)c3cnc4nccn4c3)cc2)cc1F
pIC50 ([1]; NAMPT enzymatic reaction): 9.05 | pIC50 ([2]; Homo sapiens, A2780, 72 h): 8.51

O=C(NCc1ccc(S(=O)(=O)c2cccc(N3CCCCC3)c2)cc1)c1cnc2nccn2c1
pIC50 ([1]; NAMPT enzymatic assay): 8.29 and 8.92 | pIC50 [2]: 8.24 | pIC50 ([2]; Homo sapiens, A2780, 72 h): 7.94

O=C(NCc1ccc(S(=O)(=O)c2cccc(C(F)(F)F)c2)cc1)c1cnc2nccn2c1
pIC50 ([1]; NAMPT enzymatic assay): 8.57 | pIC50 ([2]; Homo sapiens, A2780, 72 h): 8.52

O=C(NCc1ccc(S(=O)(=O)c2cccc(OCC(F)(F)F)c2)cc1)c1cnc2nccn2c1
pIC50 ([1]; NAMPT enzymatic assay): 8.26 | pIC50 ([2]; Homo sapiens, A2780, 72 h): 7.94

COc1cc(F)ccc1S(=O)(=O)c1ccc(CNC(=O)c2cc3ccncc3o2)cc1
pIC50 ([1]; NAMPT enzymatic reaction): 7.90 | pIC50 ([2]; Homo sapiens, A2780, 72 h): 7.80

Cn1ncc2ccc(S(=O)(=O)c3ccc(CNC(=O)c4cnc5[nH]ncc5c4)cc3)cc21 [N-{[4-(1-methyl-1H-indazole-6-sulfonyl)phenyl]methyl}-1H-pyrazolo[3,4-b]pyridine-5-carboxamide]
pIC50 ([1]; NAMPT enzymatic assay): 8.40 | pIC50 ([2]; Homo sapiens, A2780, 72 h): 8.52

O=C(NCc1ccc(S(=O)(=O)c2cc(F)cc(C(F)(F)F)c2)cc1)c1cc2cnccc2[nH]1
pIC50 ([1]; NAMPT enzymatic assay): 7.58 | pIC50 ([2]; Homo sapiens, A2780, 72 h): 8.44

Cc1cccc(S(=O)(=O)c2ccc(CNC(=O)c3cc4ccncc4o3)cc2)c1 [N-({4-[(3-methylbenzene)sulfonyl]phenyl}methyl)furo[2,3-c]pyridine-2-carboxamide]
pIC50 ([1]; NAMPT enzymatic reaction): 8.64 | pIC50 ([2]; Homo sapiens, A2780, 72 h): 8.28
